Data: patent US9260739B2, “Method for the detection of acid production by cariogenic bacteria” (Ivoclar Vivadent AG, priority 2010, dated 2016)

System: S. sobrinus
Assay: Acid production in vitro by pure culture, colour change of pH indicator
Assay type: cell-based
Settings: carbon source at 20% in the reaction batch, only S. sobrinus, FIG. 1
Experimental: Stock cultures of the strain selected for the experiments were stored on CRYOBANK (Mast Diagnostica, CRYO/M) ceramic supports at a temperature of −80° C. For culturing, a ceramic ring was placed into 10 ml of nutrient medium and incubated 14-72 h. This culture was designated passage 0 (P0). Then, 100 μl of culture were inoculated into 10 ml of fresh medium and incubated for 24 h. Cultures of passage 2 were used for the subsequent experiments on acid production. The cultures were diluted in this case until an absorption at 650 nm of about 0.6-1.0 was obtained. The bacterial suspensions were centrifuged at 8000 rpm for 5 minutes. The culture supernatant was removed and the pellet was resuspended in the same volume of water (10 ml, deionized, sterile). The sample was centrifuged again (8000 rpm, 5 minutes) and the supernatant was removed. The pellet was subsequently resuspended in 1 ml of deionized water which corresponds to 1/10 of the original volume. […] Then, the appropriate pH was adjusted and the mixture was filled up to the calculated volume using deionized water. […] After addition of the bacterial suspension to the respective test solution, the colour change of the pH indicator was assessed visually against a reference sample (only test solution) at regular intervals. […]

For `OC[C@H]1O[C@@](CO)(O[C@H]2O[C@H](CO)[C@@H](O)[C@H](O)[C@H]2O)[C@@H](O)[C@@H]1O` [sucrose], which “time within which acid formation can be detected” value is on record?
Its value is ≤ 15 min.

System: not listed separately
Assay: pK of pH indicators
Assay type: physicochemical
Settings: pH indicator
Experimental: In an alternative embodiment, the pH is determined using a pH indicator which changes colour on acid formation. The pH indicator is preferably added to the cariogenic bacteria together with the carbon source, e.g. by joint immobilization of pH indicator and carbon source on a test strip or by simultaneous addition of pH indicator and carbon source (preferably in the form of a single solution) to a diluted, undiluted or concentrated plaque or saliva sample. […] These comprise, e.g., the indicators bromocresol purple, bromocresol green, m-cresol purple, bromothymol blue, phenol red and chlorophenol red. […] The incubation time that must be applied until a colour change can be detected, depends on the carbon sources and test reagents used and also on their absolute and relative quantitative ratios to one another. In a preferred embodiment, the time period to a colour change of the pH indicator is less than 60 minutes, less than 45 minutes, less than 30 minutes, less than 20 minutes or less than 15 minutes after mixing bacteria, carbon source and indicator.

With `Cc1c(C2(c3cc(Br)c(O)c(Br)c3C)OS(=O)(=O)c3ccccc32)cc(Br)c(O)c1Br` [Bromocresol green] as the compound, how does the pK read?
Its pK is 4.7.

With `Cc1cc(O)ccc1C1(c2ccc(O)cc2C)OS(=O)(=O)c2ccccc21` [m-Cresol purple] as the compound, how does the pK read?
Its pK is 8.2.

Which pK does the source give for `Cc1cc(C2(c3cc(C)c(O)c(Br)c3)OS(=O)(=O)c3ccccc32)cc(Br)c1O` [Bromocresol purple] here?
Its pK is 6.

With `Cc1c(C2(c3cc(C(C)C)c(O)c(Br)c3C)OS(=O)(=O)c3ccccc32)cc(C(C)C)c(O)c1Br` [Bromothymol blue] as the compound, how does the pK read?
Its pK is 7.

Which pK does the source give for `O=S1(=O)OC(c2ccc(O)c(Cl)c2)(c2ccc(O)c(Cl)c2)c2ccccc21` [Chlorophenol red] here?
Its pK is 5.6.
